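Cultured in 96-well plates, cells were exposed to test compound for 48 hours across five concentrations. TGI: concentration producing complete growth inhibition.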
Experiments:
Assay in all cases: NCI-60 cell line screen, 48 h
DU-145 prostate = test system: DU-145 prostate
HCT-116 colon = test system: HCT-116 colon
HL-60(TB) leukemia = test system: HL-60(TB) leukemia
MCF7 breast = test system: MCF7 breast
TK-10 renal = test system: TK-10 renal
NCI/ADR-RES ovarian = test system: NCI/ADR-RES ovarian
MOLT-4 leukemia = test system: MOLT-4 leukemia
HCC-2998 colon = test system: HCC-2998 colon
EKVX NSCLC = test system: EKVX NSCLC
HS 578T breast = test system: HS 578T breast
MALME-3M melanoma = test system: MALME-3M melanoma

Compound | TGI (DU-145 prostate) [µM] | TGI (HCT-116 colon) [µM] | TGI (HL-60(TB) leukemia) [µM] | TGI (MCF7 breast) [µM] | TGI (TK-10 renal) [µM] | TGI (NCI/ADR-RES ovarian) [µM] | TGI (MOLT-4 leukemia) [µM] | TGI (HCC-2998 colon) [µM] | TGI (EKVX NSCLC) [µM] | TGI (HS 578T breast) [µM] | TGI (MALME-3M melanoma) [µM]
C=CCN(CC=C)Cn1c(=S)sc2ccccc21 | > 100 | > 100 | 41 | > 100 | > 100 | > 100 | > 100 | > 100 | > 100 | > 100 | 
COc1ccc(Nc2c(C#N)c3n(c4ccccc24)c2ccccc2[n+]3C)cc1OC | 18.5 | 7.56 | > 100 | 21.7 | 12.4 | 17.6 | > 29.5 | 13.7 | 10.1 | 11.3 | 15.8
O=c1c2ccccc2[nH]c(=S)n1-c1ccc(N=Nc2cccc3c(O)cccc23)cc1 | > 100 | > 100 | > 100 | 35.2 | > 100 | > 100 | > 100 | > 100 | > 100 | > 100 | > 100
COc1ncc(C=C(C#N)C#N)c(OC)n1 | > 100 | 74.9 | 49.7 | > 100 | > 100 | 64.1 | > 100 |  | > 100 | > 100 | > 100
CCN(CC)CCOC(c1cc(OC)ccc1OC)c1ccc2n1-c1ccccc1OC2 (centres undefined) | 60.7 | > 100 | 30.4 | 30.2 | 25.4 | 13.9 |  | 20.9 | 33.1 | 30.9 | 35.8
CC(=O)NC1C(OCc2ccccc2)OC(CO)C(O)C1OCC(=O)N[C@@H](C)C(=O)N[C@H](CCC(=O)NCCNCCNc1c2ccccc2nc2cccc([N+](=O)[O-])c12)C(N)=O (some centres undefined) | > 100 | 54.8 | > 100 | > 100 | > 100 | > 100 |  | 22.5 | 91.1 | > 100 | 55.5
CCOC(=O)c1c(NC(=O)c2ccccc2)sc2c1CCCC2 | > 100 | > 100 | > 100 | > 100 | > 100 | > 100 | > 100 |  | > 100 | > 100 | > 100
[N-]=[N+]=Nc1c(Cl)c(=O)n(-c2ccccc2)c2ccccc12 | > 100 | 33.4 | > 100 | 38.7 |  | > 100 | 38.4 | 42.7 |  | 76.9 | 43.9
COc1cc2c(cc1OCCCCCOc1cc3c(cc1OC)C(=O)N1CCC[C@H]1C(=O)N3)N=C[C@@H]1CCCN1C2=O | > 100 | > 100 | 1.51 | 0.261 | 0.253 | 33.1 |  | 20.9 | 9.54 | 4.17 | 
c1cc(-c2cnc(-c3ccc4c(c3)CCCO4)o2)ccn1 | 24.8 | 31.6 | 21.9 | 28.7 | 42.1 | 41.3 | 22.2 |  | 40.5 | 42.2 | 30.6
O=C1CC2C=CC(O)C(C1)C2 (centres undefined) | > 100 | > 100 | > 100 | > 100 | > 100 | > 100 | > 100 | > 100 |  | > 100 | > 100
CCOC(=O)c1cc(=C2\CCN(CC(C)CC)C2=S)/c(=C(/O)CC)[nH]1 (centres undefined) | 30.2 | 28.7 | 27.3 | 61 | 28.6 | 75.3 | 24.6 |  | 35.3 | 59.6 | 23.3
O=C(NS(=O)(=O)Nc1ccc(Cl)cc1)OCc1ccc(Cl)cc1Cl | 46.5 | 45.5 | 87.2 | 31.9 | 41.9 | 49.9 | > 100 | 30.9 |  | 37.5 | 47.5
O=C1CC(C(O)CO)CC(=O)N1 (centres undefined) | > 100 | > 100 | > 100 | > 100 | > 100 | > 100 |  | > 100 |  | > 100 | > 100
COC(=O)C1=C(C(=O)OC)C2OC1C1C2C2(C)C(C)=C(C)C1(C)S2=O (centres undefined) | 21.1 | 27 |  | > 45.3 | 29.8 | > 66.5 | > 100 | 38.3 | 27.6 | 51.4 | 20.9
N#CC1=C(N)OC2=C(CSc3ccccc32)C1c1ccc(Br)cc1 (centres undefined) | > 100 | 14.2 | 6.17 | 13.8 | 31.2 | 7.75 | 8.44 |  | 11.4 | > 100 | 30.7
Cc1cccc(N2C(=O)C3ON(C(C(N)=O)c4ccccc4)C(c4c5ccccc5c(Cl)c5ccccc45)C3C2=O)c1C (centres undefined) | 43.2 | 3.84 | 23.3 | 17.9 | 25.3 | 37.1 | 10.2 |  | 22.5 | > 50 | 34.7

Source: PubChem BioAssay (NCI)
